Test results: US20100266618A1, “COMPOSITIONS AND METHODS FOR AUGMENTING ACTIVITY OF ONCOLYTIC VIRUSES” (priority 2009, published 2010)
Like-named read-outs stand apart in the source and are kept apart here.

Tests used:
[1] = test system: OVCAR-8 (ovarian carcinoma) cells; type: cell-based, human
[2] = test system: U373 (glioblastoma) cells; type: cell-based, human
U373 cells = assay: In vitro cytotoxicity assays with small molecules followed by Maraba virus infection; details: for enhancement of viral oncolysis (cell viability): viability 48 h later
[3] = test system: NCI-H226 (non-small cell lung carcinoma) cells; assay: Genome-wide synthetic lethal RNAi screen with Maraba virus infection, resazurin cell viability; details: synthetic lethal hits, siRNA against the gene plus Maraba virus
[4] = siRNA against the named gene plus Maraba virus, synthetic lethal hit list
[5] = synthetic lethal hits, siRNA against the gene plus Maraba virus

Compound: NODAL
- COMPOSITE MAD SCORE OVCAR8 [1, 4]: −4.721
- COMPOSITE MAD SCORE U373 [2, 4]: −2.315

Compound: tunicamycin [reference compound]
- virus-mediated killing after chemically induced ER preload (U373 cells; pulse 48 hours before virus infection (5 ug/mL 24 h, 24 h washout)): enhance virus-mediated killing

Compound: BMP4
- COMPOSITE MAD SCORE OVCAR8 [1, 5]: −2.516
- COMPOSITE MAD SCORE U373 [2, 5]: −2.038
- COMPOSITE MAD SCORE NCIH226 [3]: −2.642

Compound: COc1cc(-c2cccc(C(N)=O)c2)cc(C=O)c1O [Compound 2, 3′-formyl-4′-hydroxy-5′-methoxy-[1,1′-biphenyl]-3-carboxamide]
- lowest, maximally effective dose in cell culture experiments (U373 cells): 20 µM
- combination index (CI) with Maraba virus (U373 cells; U373, across a range of doses and MOIs): < 1.0
- enhancement of viral oncolysis (cell viability) (U373 cells; U373, drug 4 h prior to Maraba virus infection): but not 4 hours
- enhancement of viral oncolysis (cell viability) (U373 cells; U373, drug 48 h prior to Maraba virus infection): greatly enhanced viral oncolysis
